Results: the supplement of paper PMC8671470

Tests used:
Assay in all cases: area under dose-response curve (viability, 1 nM-10 uM) (fraction (0-1)); higher = more sensitive
Conditions in all cases: 72 h
[1] = test system: myeloid leukemia patient primary cells Pat.3
Procedure: (§1)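 AUC (0–1, higher = more sensitive) of the 5-point dose–response (1 nM–10 µM, 72 h, CellTiter-Glo) in primary AML/CML patient mononuclear cells. 0.030103 is the floor for inactive compounds.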

[2] = test system: myeloid leukemia patient primary cells Pat.7
Procedure: as §1

[3] = test system: myeloid leukemia patient primary cells Pat.12
Procedure: as §1

[4] = test system: myeloid leukemia patient primary cells Pat.11
Procedure: as §1

[5] = test system: myeloid leukemia patient primary cells Pat.6
Procedure: as §1

[6] = test system: myeloid leukemia patient primary cells Pat.9
Procedure: as §1

[7] = test system: myeloid leukemia patient primary cells Pat.13
Procedure: as §1

[8] = test system: myeloid leukemia patient primary cells Pat.4
Procedure: as §1

[9] = test system: myeloid leukemia patient primary cells Pat.15
Procedure: as §1

[10] = test system: myeloid leukemia patient primary cells Pat.14
Procedure: as §1

[11] = test system: myeloid leukemia patient primary cells Pat.5
Procedure: as §1

[12] = test system: myeloid leukemia patient primary cells Pat.1
Procedure: as §1

[13] = test system: myeloid leukemia patient primary cells Pat.2
Procedure: as §1

[14] = test system: myeloid leukemia patient primary cells Pat.8
Procedure: as §1

[15] = test system: myeloid leukemia patient primary cells Pat.10
Procedure: as §1

SMILES | area under dose-response curve [1] | area under dose-response curve [2] | area under dose-response curve [3] | area under dose-response curve [4] | area under dose-response curve [5] | area under dose-response curve [6] | area under dose-response curve [7] | area under dose-response curve [8] | area under dose-response curve [9] | area under dose-response curve [10] | area under dose-response curve [11] | area under dose-response curve [12] | area under dose-response curve [13] | area under dose-response curve [14] | area under dose-response curve [15]
Sc1ncnc2nc[nH]c12 [6-mercaptopurine] | 0.44 | < 0.0301 | < 0.0301 | < 0.0301 | < 0.0301 | 0.0529 | < 0.0301 | < 0.0301 | < 0.0301 | < 0.0301 | 0.588 | < 0.0301 | < 0.0301 | < 0.0301 | 
Cc1noc2c1-c1ccccc1C(c1ccc(Cl)cc1)=N[C@H]2CC(N)=O [CPI-0610] | 0.378 | 0.0768 |  | 0.18 |  | 0.34 | 0.191 | 0.423 | 0.423 |  | 0.74 | 0.264 | 0.192 |  | 0.458
Nc1ccn([C@@H]2O[C@H](CO)[C@@H](O)[C@@H]2O)c(=O)n1 [Cytarabine] | 0.647 | 0.418 | 0.0325 | 0.0784 | 0.0602 | 0.719 | 0.188 | 0.142 | 0.109 | 0.152 | 0.85 |  | 0.077 | 0.0847 | 0.205
CCN(CC)CCN(Cc1ccc(-c2ccc(C(F)(F)F)cc2)cc1)C(=O)Cn1c(SCc2ccc(F)cc2)nc(=O)c2c1CCC2 [Darapladib] | 0.211 | 0.502 | 0.134 | 0.137 | 0.137 | 0.625 | 0.154 | 0.123 | 0.124 | 0.241 | 0.947 | 0.111 | 0.143 | 0.117 | 0.104
CC12CCC(O)CC1CCC1C2CCC2(C)C(C3=CC(=O)OC3)CCC12O (configuration not stated) [Digitoxigenin] | 0.601 | < 0.0301 | 0.208 | 0.279 | 0.26 | 0.658 | 0.324 | 0.373 | 0.357 | 0.305 | 0.713 | 0.388 | 0.27 | 0.391 | < 0.0301
C[C@H]1O[C@@H](O[C@H]2[C@@H](O)C[C@H](O[C@H]3[C@@H](O)C[C@H](O[C@H]4CC[C@@]5(C)[C@H](CC[C@@H]6[C@@H]5C[C@@H](O)[C@]5(C)[C@@H](C7=CC(=O)OC7)CC[C@]65O)C4)O[C@@H]3C)O[C@@H]2C)C[C@H](O)[C@@H]1O [Digoxin] | 0.624 | < 0.0301 | 0.275 | 0.471 | 0.328 | 0.609 | 0.384 | 0.42 | 0.493 | 0.363 | 0.611 | 0.348 | 0.346 | 0.425 | < 0.0301
Clc1ccc(COC(Cn2ccnc2)c2ccc(Cl)cc2Cl)cc1 (configuration not stated) [Econazole] | 0.173 | 0.202 | < 0.0301 | < 0.0301 | 0.0776 | 0.439 |  | < 0.0301 | < 0.0301 | 0.138 | 0.499 | 0.0311 | < 0.0301 | < 0.0301 | 0.277
C[C@]12O[C@H](C[C@]1(O)CO)n1c3ccccc3c3c4c(c5c6ccccc6n2c5c31)CNC4=O [Lestaurtinib] | 0.363 | 0.191 | 0.125 | 0.235 | 0.096 | 0.813 | 0.23 | 0.622 | 0.533 | 0.261 | 0.929 | 0.654 | 0.232 | 0.211 | 0.124
CC(Cc1ccc(O)c(O)c1)C(C)Cc1ccc(O)c(O)c1 (configuration not stated) [Masoprocol] | 0.299 | 0.294 | 0.0847 | < 0.0301 | 0.15 | 0.3 | 0.0768 | 0.119 | 0.111 |  | < 0.0301 | 0.075 |  | 0.186 | < 0.0301
COc1c(C)c2c(c(O)c1C/C=C(\C)CCC(=O)O)C(=O)OC2 [Mycophenolic acid] | 0.0922 | < 0.0301 | < 0.0301 | < 0.0301 | < 0.0301 |  |  | 0.0528 | < 0.0301 | < 0.0301 | < 0.0301 | < 0.0301 | < 0.0301 | 0.0355 | 
CCOC(=O)N1c2ccc(C(F)(F)F)cc2[C@@H](N(Cc2cc(C(F)(F)F)cc(C(F)(F)F)c2)C(=O)OC)C[C@H]1CC [Torcetrapib] | 0.0719 | 0.197 | < 0.0301 | < 0.0301 | 0.0345 | 0.239 | 0.0668 | < 0.0301 | < 0.0301 | 0.0394 |  | < 0.0301 | < 0.0301 | < 0.0301 | 0.212
